Assays:
Assay type in all cases: biochemical
HDAC9 enzyme = target: T1, HDAC9 enzyme (Homo sapiens, UniProt Q9UKV0); experiment: HDAC9 enzyme inhibitory assay (HDAC-Glo class IIa); conditions: 1 μM test compound; wells without enzyme = 100% inhibition; read-out: HDAC9 inhibitory rate (%) (1 μM)
T1 construct: transducing full length HDAC9 gene into Sf-9 insect cells; made in house; host or cells: Sf-9 insect cells
Protocol: HDAC9 Enzyme Inhibitory Assay
Enzyme was prepared by transducing full length HDAC9 gene into Sf-9 insect cells and purifying by Ni-NTA affinity column, and HDAC9 enzyme inhibitory activity was evaluated. Enzymes were used after preserved at −70° C. HDAC9 enzyme inhibitory activity of the test compound was measured using HDAC-Glo class IIa (Promega) according to the following experimental method. The test compound diluted with assay buffer (24 mM Tris-HCl (pH 7.5), 1 mM MgCl2, 0.35 mM KCl, 135 mM NaCl, 0.6 mM Glutathione, 0.01% Tween-20) was added to a 384-well plate by each 2 μL. Then, HDAC9 enzyme solution diluted with assay buffer was added thereto by each 2 μL, and the plate was incubated at room temperature for 60 min. After incubated, HDAC substrate-Developer solution prepared according to Promega protocol was added to the 384-well plate by each 4 μL, and the enzyme reaction was started. After reacting at room temperature for 20 min, luminescence level was measured using plate reader Envision (PerkinElmer). The inhibitory activity of each compound was calculated as a relative activity value when luminescence level in wells without enzyme is considered as 100% inhibition.

HDAC1 enzyme = target: T2, HDAC1 enzyme (Homo sapiens, UniProt Q13547); experiment: HDAC1 enzyme inhibitory assay (HDAC-Glo I/II Assay kit); conditions: 1 μM test compound; wells without enzyme = 100% inhibition; read-out: HDAC1 inhibitory rate (%) (1 μM)
T2 construct: transducing full length HDAC1 and HDAC6 genes into Sf-9 insect cells; GST; purchased SignalChem; host or cells: Sf-9 insect cells
T2 sequence (Q13547 whole entry): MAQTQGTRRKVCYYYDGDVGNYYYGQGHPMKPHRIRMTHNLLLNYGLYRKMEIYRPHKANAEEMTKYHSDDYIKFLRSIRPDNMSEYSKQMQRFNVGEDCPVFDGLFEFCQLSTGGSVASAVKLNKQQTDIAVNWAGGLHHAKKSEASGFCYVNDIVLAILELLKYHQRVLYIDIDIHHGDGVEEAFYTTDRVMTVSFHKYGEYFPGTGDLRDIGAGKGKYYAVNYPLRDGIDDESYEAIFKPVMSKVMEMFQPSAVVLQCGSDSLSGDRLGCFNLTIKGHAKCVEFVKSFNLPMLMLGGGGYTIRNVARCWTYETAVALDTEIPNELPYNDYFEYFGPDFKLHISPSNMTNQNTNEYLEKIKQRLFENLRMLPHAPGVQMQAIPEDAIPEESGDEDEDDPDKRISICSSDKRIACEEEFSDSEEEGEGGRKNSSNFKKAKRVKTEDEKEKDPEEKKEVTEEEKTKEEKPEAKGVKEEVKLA
Protocol: (§1) HDAC1/6 Enzyme Inhibitory Assay
(§2) HDAC1 enzyme and HDAC6 enzyme each prepared by transducing full length HDAC1 and HDAC6 genes into Sf-9 insect cells and purifying by GST affinity column were purchased from SignalChem. Using these enzymes, HDAC1 and/or HDAC6 enzyme inhibitory activities of the compound of the present invention were evaluated. Enzymes were used after preserved at −70° C. HDAC1 or HDAC6 enzyme inhibitory activity of the compound of the present invention was measured using HDAC-Glo™ I/II Assay kit (Promega) according to the following experimental method. The test compound diluted with assay buffer (24 mM Tris-HCl (pH 7.5), 1 mM MgCl2, 0.35 mM KCl, 135 mM NaCl, 0.6 mM Glutathione, 0.01% Tween-20) was added to a 384-well plate by each 2 μL. Then, HDAC1 or HDAC6 enzyme solution diluted with assay buffer was added thereto by each 4 μL, and the plate was incubated at room temperature for 60 min. After incubated, HDAC substrate-Developer solution prepared according to Promega protocol attached to the assay kit was added to the 384-well plate by each 2 μL, and the enzyme reaction was started. After reacting at room temperature for 20 min, luminescence level was measured using plate reader Envision (PerkinElmer). The inhibitory activity of each compound was calculated as a relative activity value when luminescence level in wells without enzyme is considered as 100% inhibition.

HDAC6 enzyme = target: T3, HDAC6 enzyme (Homo sapiens, UniProt Q9UBN7); experiment: HDAC6 enzyme inhibitory assay (HDAC-Glo I/II Assay kit); conditions: 1 μM test compound; wells without enzyme = 100% inhibition; read-out: HDAC6 inhibitory rate (%) (1 μM)
T3 construct: transducing full length HDAC1 and HDAC6 genes into Sf-9 insect cells; GST; purchased SignalChem; host or cells: Sf-9 insect cells
T3 sequence (Q9UBN7 1-1215): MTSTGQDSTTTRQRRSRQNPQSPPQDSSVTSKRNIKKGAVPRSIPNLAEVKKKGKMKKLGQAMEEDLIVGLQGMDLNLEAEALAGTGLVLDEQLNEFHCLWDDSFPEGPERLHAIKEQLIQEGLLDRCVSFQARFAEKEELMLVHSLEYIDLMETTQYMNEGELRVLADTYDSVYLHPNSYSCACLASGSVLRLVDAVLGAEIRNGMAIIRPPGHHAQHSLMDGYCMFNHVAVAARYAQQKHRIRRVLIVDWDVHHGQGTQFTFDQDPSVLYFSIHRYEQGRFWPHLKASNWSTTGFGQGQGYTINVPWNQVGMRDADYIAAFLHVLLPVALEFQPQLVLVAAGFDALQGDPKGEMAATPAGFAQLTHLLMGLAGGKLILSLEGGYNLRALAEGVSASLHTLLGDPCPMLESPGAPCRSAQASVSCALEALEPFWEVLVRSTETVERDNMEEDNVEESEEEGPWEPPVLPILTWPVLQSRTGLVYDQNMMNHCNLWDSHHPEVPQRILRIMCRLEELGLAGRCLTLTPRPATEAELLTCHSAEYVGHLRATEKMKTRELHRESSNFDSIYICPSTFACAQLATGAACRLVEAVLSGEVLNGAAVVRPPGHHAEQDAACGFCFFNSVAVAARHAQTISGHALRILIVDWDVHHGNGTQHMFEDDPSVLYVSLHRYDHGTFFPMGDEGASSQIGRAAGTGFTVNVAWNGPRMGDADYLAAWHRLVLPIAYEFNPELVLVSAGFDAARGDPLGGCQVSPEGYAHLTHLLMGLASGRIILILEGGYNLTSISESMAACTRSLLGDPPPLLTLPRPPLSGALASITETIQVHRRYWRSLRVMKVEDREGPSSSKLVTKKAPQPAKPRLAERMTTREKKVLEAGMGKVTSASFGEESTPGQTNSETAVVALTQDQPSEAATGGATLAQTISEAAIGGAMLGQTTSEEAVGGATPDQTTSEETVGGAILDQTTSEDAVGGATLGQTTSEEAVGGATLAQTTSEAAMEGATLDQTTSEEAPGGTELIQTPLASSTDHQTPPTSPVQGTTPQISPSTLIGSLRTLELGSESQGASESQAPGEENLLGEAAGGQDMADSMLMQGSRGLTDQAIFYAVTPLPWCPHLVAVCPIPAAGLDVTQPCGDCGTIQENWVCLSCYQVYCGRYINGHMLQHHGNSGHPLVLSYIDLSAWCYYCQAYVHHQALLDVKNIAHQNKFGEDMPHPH
Protocol: as §1, §2

T1 sequence (Q9UKV0 whole entry, species assumed): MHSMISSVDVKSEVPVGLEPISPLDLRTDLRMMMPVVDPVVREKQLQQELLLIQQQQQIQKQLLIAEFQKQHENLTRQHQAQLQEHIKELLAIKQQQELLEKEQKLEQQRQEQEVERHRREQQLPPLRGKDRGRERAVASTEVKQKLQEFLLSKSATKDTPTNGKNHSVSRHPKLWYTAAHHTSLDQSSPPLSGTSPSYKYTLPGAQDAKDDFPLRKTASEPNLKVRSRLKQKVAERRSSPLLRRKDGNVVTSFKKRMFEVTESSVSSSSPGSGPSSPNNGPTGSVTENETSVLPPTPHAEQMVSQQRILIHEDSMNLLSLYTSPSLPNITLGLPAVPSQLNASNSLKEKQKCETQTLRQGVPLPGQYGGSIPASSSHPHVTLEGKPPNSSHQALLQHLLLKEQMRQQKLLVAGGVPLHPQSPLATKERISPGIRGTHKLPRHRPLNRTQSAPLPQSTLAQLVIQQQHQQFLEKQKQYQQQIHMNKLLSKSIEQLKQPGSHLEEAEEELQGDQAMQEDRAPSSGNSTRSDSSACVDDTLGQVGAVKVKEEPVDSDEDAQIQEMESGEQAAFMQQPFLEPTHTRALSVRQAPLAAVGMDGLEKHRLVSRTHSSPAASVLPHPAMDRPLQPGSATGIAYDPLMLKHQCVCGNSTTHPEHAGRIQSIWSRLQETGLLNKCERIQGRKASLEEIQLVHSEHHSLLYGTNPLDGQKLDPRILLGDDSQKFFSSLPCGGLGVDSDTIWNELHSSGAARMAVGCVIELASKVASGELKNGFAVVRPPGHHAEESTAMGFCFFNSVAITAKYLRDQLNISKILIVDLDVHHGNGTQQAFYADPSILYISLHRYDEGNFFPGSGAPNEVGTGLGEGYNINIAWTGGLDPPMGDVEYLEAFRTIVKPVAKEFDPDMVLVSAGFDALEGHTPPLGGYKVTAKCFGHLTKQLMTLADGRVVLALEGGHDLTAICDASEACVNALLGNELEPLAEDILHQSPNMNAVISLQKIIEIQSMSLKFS

inhibition at 1 µM (HDAC9 enzyme)	inhibition at 1 µM (HDAC1 enzyme)	inhibition at 1 µM (HDAC6 enzyme)	Compound
76%	21%	96%	O=C1c2cc(-c3noc(C(F)(F)F)n3)ccc2CN1Cc1c(F)cccc1F [Example 27, 2-(2,6-difluorobenzyl)-6-(5-(trifluoromethyl)-1,2,4-oxadiazol-3-yl)isoindolin-1-one]
81%	15%	98%	O=C1c2cc(-c3noc(C(F)(F)F)n3)ccc2CN1Cc1nccs1 [Example 36, 2-(1,3-thiazol-2-ylmethyl)-6-(5-(trifluoromethyl)-1,2,4-oxadiazol-3-yl)isoindolin-1-one]
64%	11%	94%	O=C1c2cc(-c3noc(C(F)(F)F)n3)ccc2CN1Cc1ccccc1Cl [Example 25, 2-(2-chlorobenzyl)-6-(5-(trifluoromethyl)-1,2,4-oxadiazol-3-yl)isoindolin-1-one]
79%	16%	97%	CC(c1ccccn1)N1Cc2ccc(-c3noc(C(F)(F)F)n3)cc2C1=O (stereo not drawn) [Example 34]
92%	40%	94%	COc1cc(CN2Cc3ccc(-c4noc(C(F)(F)F)n4)cc3C2=O)ccc1OCC1CCCO1 (stereo not drawn) [Example 31, 2-(3-methoxy-4-(tetrahydrofuran-2-ylmethoxy)benzyl)-6-(5-(trifluoromethyl)-1,2,4-oxadiazol-3-yl)isoindolin-1-one]
94%	61%	101%	O=C1c2cc(-c3noc(C(F)(F)F)n3)cnc2CN1Cc1ccccc1 [Example 1, 6-benzyl-3-(5-(trifluoromethyl)-1,2,4-oxadiazol-3-yl)-6,7-dihydro-5H-pyrrolo[3,4-b]pyridin-5-one]
76%	23%	96%	COc1ccccc1CN1Cc2ccc(-c3noc(C(F)(F)F)n3)cc2C1=O [Example 12, 2-(2-methoxybenzyl)-6-(5-(trifluoromethyl)-1,2,4-oxadiazol-3-yl)isoindolin-1-one]
90%	55%	99%	C[C@H](c1ccccc1)N1Cc2ncc(-c3noc(C(F)(F)F)n3)cc2C1=O [Example 39, 6-((1R)-1-phenylethyl)-3-(5-(trifluoromethyl)-1,2,4-oxadiazol-3-yl)-6,7-dihydro-5H-pyrrolo[3,4-b]pyridin-5-one]
76%	9%	88%	C[C@@H](c1ccc(Cl)cc1)N1Cc2ccc(-c3noc(C(F)(F)F)n3)cc2C1=O [Example 14, 2-((1S)-1-(4-chlorophenyl)ethyl)-6-(5-(trifluoromethyl)-1,2,4-oxadiazol-3-yl)isoindolin-1-one]
92%	57%	100%	CC(c1ccccc1)N1Cc2ncc(-c3noc(C(F)(F)F)n3)cc2C1=O (stereo not drawn) [Example 2, 6-(1-phenylethyl)-3-(5-(trifluoromethyl)-1,2,4-oxadiazol-3-yl)-6,7-dihydro-5H-pyrrolo[3,4-b]pyridin-5-one]
87%	29%	99%	COc1cccc([C@H](C)N2Cc3ccc(-c4noc(C(F)(F)F)n4)cc3C2=O)c1 [Example 19, 2-((1S)-1-(3-methoxyphenyl)ethyl)-6-(5-(trifluoromethyl)-1,2,4-oxadiazol-3-yl)isoindolin-1-one]
81%	31%	98%	COc1cccc(CN2Cc3ccc(-c4noc(C(F)(F)F)n4)cc3C2=O)c1 [Example 9, 2-(3-methoxybenzyl)-6-(5-(trifluoromethyl)-1,2,4-oxadiazol-3-yl)isoindolin-1-one]
79%	14%	90%	C[C@@H](c1ccc(F)cc1)N1Cc2ccc(-c3noc(C(F)(F)F)n3)cc2C1=O [Example 13, 2-((1S)-1-(4-fluorophenyl)ethyl)-6-(5-(trifluoromethyl)-1,2,4-oxadiazol-3-yl)isoindolin-1-one]

Source: patent publication US10357484B2, “Heterocyclic compound” (Takeda Pharmaceutical Company Limited, priority 2015, dated 2019)
